Assay results reported in the NIST ThermoML archive (doi:10.1016/j.fluid.2010.06.003).
Several values for one entry are separate records, joined by “and”; a condition that tells them apart may be missing. Identical values can stand only once.

Assay: xn = mol fraction of the nth substance listed
Settings: Liquid, Taylor dispersion method, x1 = 0

C[c-]1cccc1.C[c-]1cccc1.[Fe+2] [1,1'-dimethylferrocene] + C1CCCCC1
binary diffusion coefficient
Settings | 190 kPa | 11020 kPa | 11030 kPa | 11090 kPa | 16000 kPa | 16010 kPa | 16020 kPa | 16030 kPa | 19010 kPa | 19020 kPa
313.15 K | 1.36e-09 m2/s and 1.37e-09 m2/s | 1.2e-09 m2/s | 1.2e-09 m2/s | 1.21e-09 m2/s | – | 1.14e-09 m2/s | 1.14e-09 m2/s | 1.13e-09 m2/s | 1.09e-09 m2/s | 1.09e-09 m2/s and 1.14e-09 m2/s and 1.11e-09 m2/s
323.15 K | – | – | – | – | 1.36e-09 m2/s | – | 1.36e-09 m2/s | 1.36e-09 m2/s | – | –

C[c-]1cccc1.C[c-]1cccc1.[Fe+2] [1,1'-dimethylferrocene] + CCCCCC
313.15 K
Settings | binary diffusion coefficient
160 kPa | 3.36e-09 m2/s and 3.4e-09 m2/s and 3.37e-09 m2/s
170 kPa | 3.41e-09 m2/s
11030 kPa | 3.05e-09 m2/s and 3.06e-09 m2/s
15990 kPa | 2.9e-09 m2/s
16000 kPa | 2.89e-09 m2/s and 2.87e-09 m2/s
16010 kPa | 2.9e-09 m2/s
16030 kPa | 2.9e-09 m2/s
19020 kPa | 2.84e-09 m2/s

C[c-]1cccc1.C[c-]1cccc1.[Fe+2] [1,1'-dimethylferrocene] + CCO
Settings | binary diffusion coefficient
313.15 K, 200 kPa | 1.29e-09 m2/s and 1.3e-09 m2/s and 1.31e-09 m2/s

CCc1ccc[cH-]1.[Fe+2].c1cc[cH-]c1 [ethyl ferrocene] + C1CCCCC1
binary diffusion coefficient
Settings | 170 kPa | 180 kPa | 11020 kPa | 11030 kPa | 16020 kPa | 16030 kPa | 19010 kPa | 19020 kPa | 19030 kPa
313.15 K | 1.38e-09 m2/s | 1.36e-09 m2/s and 1.38e-09 m2/s | 1.21e-09 m2/s | 1.2e-09 m2/s | – | 1.14e-09 m2/s and 1.15e-09 m2/s | 1.12e-09 m2/s and 1.15e-09 m2/s | 1.12e-09 m2/s | 1.11e-09 m2/s
323.15 K | – | – | – | – | 1.36e-09 m2/s | 1.35e-09 m2/s | – | – | –

CCc1ccc[cH-]1.[Fe+2].c1cc[cH-]c1 [ethyl ferrocene] + CCCCCC
313.15 K
Settings | binary diffusion coefficient
160 kPa | 3.35e-09 m2/s and 3.37e-09 m2/s and 3.38e-09 m2/s and 3.3e-09 m2/s and 3.34e-09 m2/s
11060 kPa | 2.98e-09 m2/s
11070 kPa | 3e-09 m2/s and 2.99e-09 m2/s
16010 kPa | 2.86e-09 m2/s and 2.89e-09 m2/s
16030 kPa | 2.87e-09 m2/s
18960 kPa | 2.81e-09 m2/s
19010 kPa | 2.78e-09 m2/s

CCc1ccc[cH-]1.[Fe+2].c1cc[cH-]c1 [ethyl ferrocene] + CCO
Settings | binary diffusion coefficient
313.15 K, 200 kPa | 1.29e-09 m2/s and 1.32e-09 m2/s and 1.31e-09 m2/s

[CH]1C=CC=C1.[CH]1C=CC=C1.[Fe] [ferrocene] + C1CCCCC1
binary diffusion coefficient
Settings | 313.15 K | 323.15 K
170 kPa | 1.52e-09 m2/s | –
190 kPa | 1.51e-09 m2/s | –
200 kPa | 1.5e-09 m2/s | –
11030 kPa | 1.31e-09 m2/s | –
11080 kPa | 1.31e-09 m2/s | –
11090 kPa | 1.32e-09 m2/s | –
16010 kPa | 1.25e-09 m2/s | –
16020 kPa | 1.25e-09 m2/s | 1.48e-09 m2/s
16030 kPa | 1.25e-09 m2/s | 1.48e-09 m2/s
19010 kPa | 1.21e-09 m2/s | –
19020 kPa | 1.21e-09 m2/s and 1.22e-09 m2/s and 1.24e-09 m2/s | –

[CH]1C=CC=C1.[CH]1C=CC=C1.[Fe] [ferrocene] + CCCCCC
binary diffusion coefficient
Settings | 160 kPa | 170 kPa | 10990 kPa | 11070 kPa | 11090 kPa | 15990 kPa | 16010 kPa | 16020 kPa | 16030 kPa | 19020 kPa
313.05 K | – | – | – | – | – | – | – | 3.14e-09 m2/s | 3.11e-09 m2/s | –
313.15 K | 3.66e-09 m2/s and 3.65e-09 m2/s | 3.64e-09 m2/s | 3.28e-09 m2/s and 3.25e-09 m2/s | 3.28e-09 m2/s | 3.29e-09 m2/s | 3.17e-09 m2/s | 3.13e-09 m2/s | 3.12e-09 m2/s | 3.11e-09 m2/s and 3.14e-09 m2/s | 3.07e-09 m2/s

[CH]1C=CC=C1.[CH]1C=CC=C1.[Fe] [ferrocene] + CCO
Settings | binary diffusion coefficient
313.15 K, 200 kPa | 1.48e-09 m2/s and 1.46e-09 m2/s and 1.45e-09 m2/s
